Reference: patent publication US12534451B2, “Small molecule modulators of PanK” (St. Jude Children's Research Hospital, priority 2019, dated 2026)

Tests used:
human PANK3 = human PANK3 (Homo sapiens (Human), UniProt Q9H999); experiment: PANK activity assay (radiochemical, D-[1-14C]pantothenate); format: biochemical; conditions: 5 nM human PANK3, 2.5 mM ATP, 45 μM pantothenate, 10 min at 37° C.; average ± data range
Procedure: The PanK activity and Surface Plasmon Resonance assays were conducted as explained in the literature.
If the IC^50 was determined to be in the nM range then the assay was repeated in the presence of 0-1 μM or 0-0.1 μM compound to more precisely determine the IC^50. All the experiments were repeated twice in duplicate and the data were an average ±data range.
The experiments mimicking the mixture of ligands present in vivo were performed under different conditions. […] The IC^50 values for the structure-activity study were calculated by fitting the inhibition data to a one-site model of the Michaelis-Menten equation. […] Thus, the data were fit to Morrison's quadratic equation (GraphPad software) that accounts for the impact of enzyme inhibitor binding on the free concentration of inhibitor.

[1] = tested on: Human C3A [HepG2/C3A] cells; experiment: Cellular total CoA determination in C3A cells; format: cell-based; conditions: 24 hrs of treatment
Procedure: Human C3A [HepG2/C3A, derivative of HepG2] cells (ATCC #CRL-10741) were purchased from ATCC® and maintained in Eagle's minimum Essential medium (ATCC) supplemented with 2 mM glutamine, 10% fetal bovine serum (FCS, Altanta Biologicals), 50 U/ml penicillin and […] streptomycin. The C3A cell line was confirmed to be mycoplasma-free. Test compounds or vehicle control (DMSO) was added and after 24 hrs of treatment the cells were washed with PBS and harvested and subjected to total CoA determination.
Cultured cells were resuspended in 2 ml cold water to which 500 μl of 0.25M KOH was added, derivatized with monobromobimane (mBBr, Life technologies) and quantified by HPLC. 30 mg of frozen tissue is homogenized in 2 ml of 1 mM KOH and then derivatized with mBBr. The mBBr derivatized samples were fractionated by reverse-phase HPLC using a Gemini C18 3 μm column (150×4.60 mm) from Phenomenex. The chromatography system was a Waters e2695 separation module with a UV/Vis and fluorescence detector and controlled by Empower 3 software. Solvent A was 50 mM potassium phosphate pH 4.6, and solvent B was 100% acetonitrile. Twenty microliters of sample was injected onto the column, and the flow rate was 0.5 ml/min. The HPLC program was the following: starting solvent mixture of 90% A/10% B, 0-2 min isocratic with 10% B, 2-6 min linear gradient from 10% B to 15% B, 6-18 min concave gradient from 15% B to 40% B, 18-23 min isocratic with 40% B, 23-25 min linear gradient from 40 to 10%, and 25-30 min isocratic with 10% B. The UV/vis detector was set at 393 nm, and the fluorescence detector was set with excitation at 393 nm and emission at 470 nm. The elution position of the mBBr-CoA, was determined by comparison with mBBr-CoA prepared from commercial CoA (Avanti Polar Lipids). The areas under the mBBr-derivatized CoA was integrated and compared to known concentrations of the mBBr-CoA standard.

Sequence of human PANK3 (Q9H999 whole entry): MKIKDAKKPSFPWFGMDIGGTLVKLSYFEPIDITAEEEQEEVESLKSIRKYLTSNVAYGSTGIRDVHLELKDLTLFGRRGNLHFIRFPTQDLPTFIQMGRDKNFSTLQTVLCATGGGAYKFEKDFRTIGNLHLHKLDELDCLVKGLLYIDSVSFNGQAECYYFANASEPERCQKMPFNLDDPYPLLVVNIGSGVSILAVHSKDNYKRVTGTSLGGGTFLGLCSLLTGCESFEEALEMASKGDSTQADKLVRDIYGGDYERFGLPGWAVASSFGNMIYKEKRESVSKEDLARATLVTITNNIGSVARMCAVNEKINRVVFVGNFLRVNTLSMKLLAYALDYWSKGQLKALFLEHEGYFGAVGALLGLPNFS

Row | SMILES | IC50 (human PANK3) | C3A CoA% elevation [1]
1 | O=C(Cc1ccc(C2CC2)cc1)N1CCN(c2nc3ncccc3s2)CC1 [PZ-4298] | 1 ± 0.1 nM | 60.1%
2 | CS(=O)(=O)Nc1ccc(CC(=O)N2CCN(c3nc4c(F)cc(F)cc4s3)CC2)cc1 [PZ-4324] | 1.3 ± 0.06 nM | 104.3%
3 | CN(C)c1ccc(CC(=O)N2CCN(c3nc4ncccc4s3)CC2)cc1 [PZ-4316] | 5 ± 0.5 nM | 183.4%
4 | CN(C)c1ccc(CC(=O)N2CCN(c3nc4c(F)cc(F)cc4s3)CC2)cc1 [Lee-4296] | 25 ± 1.6 nM | 198.6%
5 | CS(=O)(=O)Nc1ccc(CC(=O)N2CCN(c3nc4ccccc4s3)CC2)cc1 [PZ-4294] | 13 ± 1.3 nM | 102.23%
6 | O=C(Cc1ccc(C2CC2)cc1)N1CCN(c2nc3c(F)cc(F)cc3s2)CC1 [PZ-4291] | 2.1 ± 0.1 nM | 238.4%
7 | O=C(Cc1ccc(C2CC2)cc1)N1CCN(c2nc3ccc(F)cc3o2)CC1 [PZ-4304] | 14.3 ± 0.6 nM | 167%
8 | O=C(Cc1ccc(C2CC2)cc1)N1CCN(c2nc3ccccc3s2)CC1 [PZ-4285] | 26 ± 3 nM | 223.7%
9 | O=C(Cc1ccc(C2CC2)cc1)N1CCN(c2nc3cc(F)ccc3s2)CC1 [PZ-4306] | 5.4 ± 0.4 nM | 238.6%
10 | CS(=O)(=O)Nc1ccc(CC(=O)N2CCN(c3nc4ncccc4s3)CC2)cc1 [PZ-4320] | 1.4 ± 0.16 nM | 58%
11 | O=C(Cc1ccc(C2CC2)cc1)N1CCN(c2nc3ncccc3o2)CC1 [PZ-4314] | 2.9 ± 0.1 nM | 275%
12 | CS(=O)(=O)Nc1ccc(CC(=O)N2CCN(c3nc4c(F)cccc4s3)CC2)cc1 [PZ-4322] | 4.1 ± 0.49 nM | 171.6%
13 | O=C(Cc1ccc(C2CC2)cc1)N1CCN(c2nc3ccc(F)cc3s2)CC1 [PZ-4300] | 3.9 ± 0.3 nM | 242.5%
